In the assay the target is Flap endonuclease 1 (Homo sapiens, UniProt P39748). The assay can be described thus: Enzymatic IC50 Assays: FEN1, EXO1 or XPG enzyme was incubated with compound or vehicle (DMSO) and the FAM-labeled DNA oligomer substrate in a microtiter plate. The stop buffer contains EDTA to stop the enzymatic reaction. The plate is read for fluorescence intensity. The high control (DMSO) with high fluorescence intensity represents no inhibition of enzymatic reaction while the low control (10 μM) with low fluorescence intensity represents full inhibition of enzymatic reaction.
Chain of Flap endonuclease 1 (P39748 whole entry): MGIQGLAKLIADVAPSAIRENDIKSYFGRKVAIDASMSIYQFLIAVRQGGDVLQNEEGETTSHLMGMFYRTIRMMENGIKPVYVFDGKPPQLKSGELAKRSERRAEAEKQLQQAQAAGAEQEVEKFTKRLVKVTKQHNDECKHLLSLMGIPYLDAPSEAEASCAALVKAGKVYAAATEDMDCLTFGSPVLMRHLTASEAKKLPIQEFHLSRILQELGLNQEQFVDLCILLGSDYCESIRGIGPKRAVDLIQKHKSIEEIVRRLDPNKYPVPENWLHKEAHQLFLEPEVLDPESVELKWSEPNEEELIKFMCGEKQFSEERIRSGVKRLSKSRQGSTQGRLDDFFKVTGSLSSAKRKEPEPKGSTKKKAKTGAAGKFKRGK
Consider `O=C(O)c1c(O)c(=O)n(Cc2cnn(-c3cccc(Cl)c3)c2)c2ccsc12`, for which the 50% inhibitory concentration (IC50) is under 200 nM. The value for `Cc1c(Cn2c(=O)c(O)c(C(=O)O)c3sccc32)cnn1C` was under 200 nM. The result for `COc1cccc(-n2cc(Cn3c(=O)c(O)c(C(=O)O)c4sccc43)cn2)c1` reads under 200 nM; that for `COc1ccc(Cn2cc(Cn3c(=O)c(O)c(C(=O)O)c4sccc43)cn2)cc1`, under 200 nM; that for `O=C(O)c1c(O)c(=O)n(Cc2cnc3ccccn23)c2ccsc12`, under 200 nM.

On to `COc1ccc(Cn2c(=O)c(O)c(C(=O)O)c3sccc32)cn1`, for which the IC50 is under 200 nM.

The IC50 is the concentration that gives 50% inhibition.

The values are drawn from ChEMBL document CHEMBL5729604, “Dihydrothieno[3,2-b]pyridine compounds” (2023).
